Results as given in US5885786A, “Methods for screening of substances for inhibition of multidrug resistance” (priority 1996, dated 1999).
Entries after “also recorded” stand apart in the source; their conditions may differ. Structures can show the parent of a compound that is named as a salt. Where two headings read alike, the source gives them in different places.

Experiments:
[1] = test system: K562 erytiroleukemia cells; conditions: Yan et al., 1995; cited from earlier work
[2] = test system: chronic myelogenous leukemia; conditions: previously untreated chronic myelogenous leukemia; cited from earlier work
[3] = cited from earlier work
MCF-7-AdrR cells [4] = test: Cell proliferation (MTS) assay: adriamycin toxicity and chemosensitization
Text: FIG. 15A and FIG. 15B. […] FIG. 15B: Glycosylceramide levels in MDR Cells following drug treatment. […] In order to avoid differences in [^3 H]glycosylceramide values which account for cell death, the same amount of total radioactive lipid from each sample was applied to TLC separation.
FIG. 16A and FIG. 16B. […] FIG. 16A: Effect of PPMP on cellular glycosylceramide levels. […] [^3 H]Glycosylceramide was quantitated as described in the legend to FIG. 9.
Vehicle (acetone, ethanol) was always added to control (minus drug) wells. The cytotoxic activity of a drug was determined using the Promega CellTiter 96™ AQueous MTS cell proliferation assay kit. Each experimental point was performed in six replicates. MTS/PMS solution (20 μl/well) was aliquoted into all wells, and the cells were incubated for 2-3 h, or until an O.D. of 0.9-1.0 was obtained as a highest reading. Thereafter, absorbence at 490 nm was recorded using an ELISA plate reader (Molecular Devices, San Diego, Calif.).

[5] = test system: OVCAR-3 (MDR ovarian carcinoma); conditions: clinically relevant concentrations (Rogan et al., 1984); cited from earlier work
[6] = test system: glycosylceramide synthesis in MCF-7-AdrR cells; test: Glycosylceramide levels in MDR cells following drug treatment, [3H]serine 48 h; format: cell-based; conditions: read-out: diminution in glycosylceramide formation, adriamycin alone
P388 and U937 cells = conditions: Bose et al., 1995; cited from earlier work
certain animal tumors = conditions: in vivo; cited from earlier work
[7] = test system: MCF-7-doxorubicin resistant cells; conditions: Sachs et al., 1995; cited from earlier work
PKC = conditions: Sachs et al., 1995; cited from earlier work
MCF-7-AdrR cells [8] = test: Metabolism of sphinganine, MCF-7-AdrR cells (TLC charring); format: cell-based; conditions: 5.0 μM sphinganine:BSA, FIG. 4
Procedure: (§1) FIG. 4. Metabolism of sphinganine by MCF-7-wt and MCF-7-AdrR cells. Cells, in 100×20 mm culture dishes, were incubated with 5.0 μM sphinganine:BSA (prepared at a 1:1 molar ratio) for the times indicated. Lipids were extracted, a 100 μg lipid aliquot of each sample was resolved by TLC in solvent system II, and the TLC was charred as described in Example I. The data shown are representative of two independent experiments which gave similar results.
(§2) Lipid Mass Analysis--Cell lipids were analyzed by TLC separation and charring of the chromatogram. Briefly, total cellular lipids were extracted by the method of Bligh and Dyer (1959), and equal aliquots (by weight) from each sample were spotted on TLC plates. The plates were developed using solvent system I or II (see below), air-dried for 1 h and sprayed using a 35% solution of sulfuric acid in water. The lipids were charred by heating in an oven at 180° C. for 30 min, and resulting black bands were visualized and photographed. Bands can be further quantitated by photodensitometric scanning.

MCF-7-wt cells = test: Metabolism of sphinganine, MCF-7-wt cells (TLC charring); format: cell-based; conditions: 5.0 μM sphinganine:BSA, FIG. 4
Procedure: as §1, §2

[9] = in vivo; cited from earlier work
[10] = test system: lymphomas, particularly Hodgkin's disease; conditions: cited from earlier work

For `Cc1cn([C@H]2C[C@H](N=[N+]=[N-])[C@@H](CO)O2)c(=O)[nH]c1=O` [3'-azidothymidine], the “sphingoglycolipid metabolism (in words)” value [1] is listed as “altered sphingoglycolipid metabolism”.
In the case of `CS(=O)(=O)OCCCCOS(C)(=O)=O` [Busulfan, 1,4-butanediol dimethanesulfonate], the hematologic remission [2] is given as “Approximately 90 % of adults”.
In the case of `COc1cccc2c1C(=O)c1c(O)c3c(c(O)c1C2=O)C[C@@](O)(C(=O)CO)C[C@@H]3O[C@H]1C[C@H](N)[C@H](O)[C@H](C)O1` [adriamycin, 5,12-Naphthacenedione, (8s-cis)-10-[(3-amino-2,3,6-trideoxy-a-L-lyxo-hexopyranosyl)oxy]-7,8,9,10-tetrahydro-6,8,11-trihydroxy-8-(hydroxyacetyl)-1-methoxy-hydrochloride], the elimination half-life ([3]; in vivo, iv) is given as “about 30 hr”, the “excreted into the urine” value ([3]; in vivo) is given as “a few percent” and the “absorption (in words)” value ([3]; oral or unspecified) is given as “absorbed poorly”. The “cell death, adriamycin in the presence of tamoxifen” value (MCF-7-AdrR cells [4]; 5 μM adriamycin + 5.0 μM tamoxifen, 72 h, FIG. 15A) was 60%, the cytotoxicity at 5 µM (MCF-7-AdrR cells [4]; Homo sapiens, 72 h, read-out: cell death, adriamycin alone (maximal cytotoxic effect)) was 28% and the “effect of the substance alone on cell survival (in words)” value (MCF-7-AdrR cells [4]; MCF-7-AdrR, alone) was “minor effect; also recorded: largely without influence”. The “resistance of OVCAR-3 to the drug (in words)” value [5] was “resistant” and the inhibition at 2.5 µM [6] was 17%.
For `COc1cccc2c1C(=O)c1c(O)c3c(c(O)c1C2=O)C[C@@](O)(C(C)=O)C[C@@H]3O[C@H]1C[C@H](N)[C@H](O)[C@H](C)O1` [daunorubicin, 5,12-Naphthacenedione, (8S-cis)-8-acetyl-10-[(3-amino-2,3,6-trideoxy-a-L-lyxo-hexanopyranosyl)oxy]-7,8,9,10-tetrahydro-6,8,11-trihydroxy-10-methoxy-, hydrochloride], the distribution half-life ([3]; in vivo, iv) is given as 0.75 h, the elimination half-life ([3]; in vivo, iv) is given as “about 19 hr” and the “secreted into the bile” value ([3]; in vivo, iv) is given as ~40%. For the same molecule, the “absorption (in words)” value ([3]; in vivo, po) was “poor” and the “ceramide elevation (in words)” value (P388 and U937 cells) was “stimulates ceramide elevation”.
For `N[C@H](Cc1ccc(N(CCCl)CCCl)cc1)C(=O)O` [medphalan], the “activity against certain animal tumors relative to L-isomer (in words)” value (certain animal tumors) is listed as “less active”.
For `CCCCCCCCCCCCCCC[C@H](O)[C@@H](N)CO` [safingol], the “reversal of MDR (in words)” value [7] is listed as “reversal of MDR” and the “inhibition of PKC activity (in words)” value (PKC) is listed as “inhibition of PKC activity”.
With `CCCCCCCCCCCCCCC[C@@H](O)[C@@H](N)CO` [sphinganine] the “glycosylceramide (lipid-1 and -2) synthesis/mass on sphinganine supplement, MCF-7-AdrR (in words)” value (MCF-7-AdrR cells [8]) was “accelerated synthesis; also recorded: strikingly more pronounced” and the “synthesis of lipid X, MCF-7-wt (in words)” value (MCF-7-wt cells) was “synthesis of lipid X increased”.
For `CC[C@]1(O)C[C@@H]2CN(CCc3c([nH]c4ccccc34)[C@@](C(=O)OC)(c3cc4c(cc3OC)N(C)[C@H]3[C@@](O)(C(=O)OC)[C@H](OC(C)=O)[C@]5(CC)C=CCN6CC[C@]43[C@@H]65)C2)C1` [vinblastine], the “half-life of disappearance from plasma, first” value ([3]; in vivo, iv) is given as “approximately 1 hours”, the “half-life of disappearance from plasma, second” value ([3]; in vivo, iv) is given as ~20 h and the Cmax ([3]; in vivo) is given as ~400 µM. For the same molecule, the “distribution in blood cells (in words)” value ([3]; in vivo) was “extensively concentrated in platelets”, the “plasma protein binding (in words)” value ([3]; in vivo) was “bind to plasma proteins” and the “tolerability / toxicity (in words)” value [9] was “painful irritation and ulceration”. For the same molecule, the significant improvement [10] was 50 to 90 % of cases.
